Results: ChEMBL document CHEMBL1146936, “Synthesis and evaluation of arylaminoethyl amides as noncovalent inhibitors of cathepsin S. Part 3: heterocyclic P3” (Bioorg Med Chem Lett, 2006)

What was measured:
[1] = Volume of distribution in Wistar rat at 3 mg/kg, iv; type: ADME, organism-based; parameters: dose 3 mg/kg, route intravenous; conditions: in vivo, read-out: Vss
Rattus norvegicus = test: Plasma concentration in Wistar rat at 10 mg/kg, po; type: ADME, organism-based; parameters: dose 10 mg/kg, route oral; conditions: in vivo
[2] = Clearance in Wistar rat at 3 mg/kg, iv; type: ADME, organism-based; parameters: dose 3 mg/kg, route intravenous; conditions: in vivo
[3] = Half life in Wistar rat at 3 mg/kg, iv; type: ADME, organism-based; parameters: dose 3 mg/kg, route intravenous; conditions: in vivo
[4] = AUC in Wistar rat at 10 mg/kg, po; type: ADME, organism-based; parameters: dose 10 mg/kg, route oral; conditions: plasma
[5] = Cmax in Wistar rat at 10 mg/kg, po; type: ADME, organism-based; parameters: dose 10 mg/kg, route oral; conditions: in vivo
[6] = Oral bioavailability in Wistar rat at 10 mg/kg, po; type: ADME, organism-based; conditions: in vivo
[7] = Half life in Wistar rat at 10 mg/kg, po; type: ADME, organism-based; parameters: dose 10 mg/kg, route oral; conditions: in vivo
Liver microsomes = test: Metabolic stability in Wistar rat liver microsome; type: ADME

| SMILES | Vd [1] | concentration (Rattus norvegicus) | clearance [2] | half-life [3] | Cp (Rattus norvegicus) | AUC [4] | Cmax [5] | bioavailability [6] | half-life [7] | Stability (Liver microsomes) |
| --- | --- | --- | --- | --- | --- | --- | --- | --- | --- | --- |
| O=C(O)C[C@@H](CN1CCc2cc(F)ccc21)NC(=O)[C@H](CC1CCCCC1)Nc1nc2ccc(Cl)cc2o1 | 0.74 L/kg | > 1000 nM | 23.2 mL/min/kg | 1 h |  |  |  |  |  |  |
| COc1ccc(NCCNC(=O)[C@H](CC2CCCCC2)Nc2nc3ccccc3o2)cc1 | 1.63 L/kg |  | 11.4 mL/min/kg | 4.8 h | Not Active | 15 ng·h/mL | 12 nM | < 1% | 5.3 h | < 5% |
| CCOC(=O)C[C@@H](CN1CCc2cc(F)ccc21)NC(=O)[C@H](CC1CCCCC1)Nc1nc2ccc(Cl)cc2o1 |  |  |  |  | Not Active | 1580 ng·h/mL | 1100 nM | 22% | 1 h |  |

The remaining lines, values ahead:

| Vd [1] | concentration (Rattus norvegicus) | clearance [2] | half-life [3] | Cp (Rattus norvegicus) | AUC [4] | Cmax [5] | bioavailability [6] | half-life [7] | Stability (Liver microsomes) | SMILES |
| --- | --- | --- | --- | --- | --- | --- | --- | --- | --- | --- |
|  |  |  |  |  | 900 ng·h/mL |  |  | 4.1 h |  | C[C@@H](CN1c2ccc(F)cc2CC1(C)C)NC(=O)[C@H](CC1CCCCC1)Nc1nc2cccc(Cl)c2o1 |
| 2.57 L/kg |  | 33.1 mL/min/kg | 2.3 h |  | 1080 ng·h/mL | 703 nM | 24% | 1.1 h |  | C[C@@H](CN1CCc2cc(F)ccc21)NC(=O)[C@H](CC1CCCCC1)Nc1nc2cccc(Cl)c2o1 |
| 0.9 L/kg |  | 10.1 mL/min/kg | 8.3 h |  | 2400 ng·h/mL | 1260 nM | 15% | 5.1 h |  | C[C@@H](CN1CC(C)(C)c2cc(F)ccc21)NC(=O)[C@H](CC1CCCCC1)Nc1nc2cccc(Cl)c2o1 |
